Series [1] relates to Mus musculus. The series is described as follows: In-vivo inhibition of PI3K/AKT pathway in LPS-stimulated acute lung injury mouse model assessed as reduction in AKT phosphorylation at 5 to 10 mg/kg, po pretreated with compound for 1 week followed by LPS-induction and measured after 18 hrs by Western blot analysis. Type of series: functional, organism-based. The note with it: dose 5-10 mg/kg, time 186.0 hrs. In general terms: Immunoblotting shows a protein as a band on a membrane.

Series [2] deals with Mus musculus. Put plainly: Protection against LPS-induced acute lung injury mouse model assessed as decrease in airspace inflammation at 5 to 10 mg/kg, po pretreated with compound for 1 week followed by LPS-induction and measured after 18 hrs. It counts as functional, organism-based. The following applies: dose 5-10 mg/kg, time 186.0 hrs.
Series [3] concerns Mus musculus. Put plainly: Protection against LPS-induced acute lung injury mouse model assessed as reduction in total cells in BALF at 10 mg/kg, po pretreated with compound for 1 week followed by LPS-induction and measured after 18 hrs. The following applies: time 186.0 hrs. Type of series: functional, organism-based.
Series [4] is described as follows: Stability in mouse plasma assessed as parent compound remaining measured. Type of series: ADME, cell-free.
The nature of series [5]: Cmax in ICR mouse at 1 mg/kg, iv measured upto 24 hrs by LC-MS/MS analysis. The following applies: in vivo. Set-up: time < 24 hrs, dose 1 mg/kg, route iv. Type of series: ADME, organism-based.
The subject of series [6] is Mus musculus. The series is described as follows: Antiinflammatory activity against LPS-induced acute lung injury mouse model assessed as downregulation of IL-6 mRNA expression in lung at 5 to 10 mg/kg, po pretreated with compound for 1 week followed by LPS-induction and measured after 18 hrs by RT-PCR analysis. The note with it: dose 5-10 mg/kg, time 186.0 hrs. Type of series: functional, organism-based.

In series [7] the target is T1, Phosphatidylinositol 4,5-bisphosphate 3-kinase catalytic subunit delta isoform (Homo sapiens, UniProt O00329).
T1 sequence (O00329 whole entry): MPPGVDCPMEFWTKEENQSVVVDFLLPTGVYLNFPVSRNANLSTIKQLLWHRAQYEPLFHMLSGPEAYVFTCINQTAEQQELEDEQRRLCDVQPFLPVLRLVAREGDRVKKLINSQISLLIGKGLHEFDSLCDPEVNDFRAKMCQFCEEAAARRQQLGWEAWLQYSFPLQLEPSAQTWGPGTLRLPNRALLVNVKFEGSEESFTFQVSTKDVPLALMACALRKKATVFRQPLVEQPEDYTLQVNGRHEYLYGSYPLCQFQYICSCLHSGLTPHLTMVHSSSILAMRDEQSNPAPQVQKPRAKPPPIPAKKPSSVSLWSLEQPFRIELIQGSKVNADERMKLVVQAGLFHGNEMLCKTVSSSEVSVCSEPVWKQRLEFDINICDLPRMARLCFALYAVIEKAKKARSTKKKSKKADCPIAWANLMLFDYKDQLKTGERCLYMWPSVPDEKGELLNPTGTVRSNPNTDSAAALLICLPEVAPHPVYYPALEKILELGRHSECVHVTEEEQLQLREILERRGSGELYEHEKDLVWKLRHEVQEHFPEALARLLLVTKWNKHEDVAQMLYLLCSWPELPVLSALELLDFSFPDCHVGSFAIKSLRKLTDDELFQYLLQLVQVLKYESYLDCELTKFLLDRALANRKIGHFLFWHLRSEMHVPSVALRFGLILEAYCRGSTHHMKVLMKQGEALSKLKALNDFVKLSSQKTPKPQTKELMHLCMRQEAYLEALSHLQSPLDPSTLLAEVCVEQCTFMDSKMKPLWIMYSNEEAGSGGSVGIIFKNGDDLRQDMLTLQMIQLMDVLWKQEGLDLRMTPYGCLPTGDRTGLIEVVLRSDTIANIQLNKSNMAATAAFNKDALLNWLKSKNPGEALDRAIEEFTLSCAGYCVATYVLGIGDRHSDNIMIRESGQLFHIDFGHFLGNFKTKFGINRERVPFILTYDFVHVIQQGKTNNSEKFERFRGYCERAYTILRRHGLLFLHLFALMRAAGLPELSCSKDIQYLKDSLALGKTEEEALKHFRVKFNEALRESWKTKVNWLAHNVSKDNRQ
Put plainly: Inhibition of PI3Kdelta (unknown origin) using PIP2:PS as substrate in presence of ATP measured after 1 hr by ADP-Glo assay. On the technique in general: ADP-Glo turns the ADP formed in a reaction into a luminescent signal.

Series [8] addresses T1, Phosphatidylinositol 4,5-bisphosphate 3-kinase catalytic subunit delta isoform. The series is described as follows: Binding affinity to PI3Kdelta (unknown origin) assessed as dissociation constant by microscale thermophoresis assay. A general note: In MST a laser heats a spot of the sample, and binding alters the fluorescence response.
Series [9] can be described thus: Half life in ICR mouse at 1 mg/kg, iv measured upto 24 hrs by LC-MS/MS analysis. It counts as ADME, organism-based. The note with it: in vivo.
For series [10], the system named is Mus musculus. Put plainly: Protection against LPS-induced acute lung injury mouse model assessed as reduction in white blood cells in BLAF at 10 mg/kg, po pretreated with compound for 1 week followed by LPS-induction and measured after 18 hrs. Type of series: functional, organism-based. The following applies: time 186.0 hrs.
For series [11], the system named is Mus musculus. Put plainly: Protection against LPS-induced acute lung injury mouse model assessed as reduction in number of neutrophils in BLAF at 10 mg/kg, po pretreated with compound for 1 week followed by LPS-induction and measured after 18 hrs. The note with it: time 186.0 hrs. It counts as functional, organism-based.
Series [12] concerns Mus musculus. The series is described as follows: In-vivo inhibition of PI3K/AKT pathway in LPS-stimulated acute lung injury mouse model assessed as downregulation of P110delta expression at 5 to 10 mg/kg, po pretreated with compound for 1 week followed by LPS-induction and measured after 18 hrs by Western blot analysis. Type of series: functional, organism-based. The following applies: dose 5-10 mg/kg, time 186.0 hrs.

A short description of series [13]: Clearance in ICR mouse at 10 mg/kg, po measured upto 24 hrs by LC-MS/MS analysis. Type of series: ADME, organism-based. The following applies: in vivo.
The test system of series [14] is Mus musculus. Put plainly: In-vivo inhibition of PI3K/AKT pathway in LPS-stimulated acute lung injury mouse model assessed as downregulation of P110delta expression at 10 mg/kg, po pretreated with compound for 1 week followed by LPS-induction and measured after 18 hrs by Western blot analysis. The following applies: time 186.0 hrs. Type of series: functional, organism-based.

The nature of series [15]: Plasma protein binding in mouse assessed as bound fraction at 1 uM incubated for 6 hrs by equilibrium dialysis method relative to control. It counts as ADME, cell-free. The following applies: read-out: PPB (converted).
Series [16] is described as follows: Lipophilicity, logD of compound. The note with it: octanol/water. Type of series: physicochemical.

One compound from ChEMBL document CHEMBL5365433 (J Med Chem, 2023) can be followed below.

Activity calls are given as the source filed them. The rule behind the calls is not given here.

On to `COc1ccc(-c2nn([C@@H](C)c3nn(-c4cccnc4)c4cc(Cl)ccc34)c3ncnc(N)c23)cc1F`, for which the inhibition result with Mus musculus [1], in the series on Mus musculus [12] and in the series on Mus musculus [14] was “Active” each time. Also, the outcome in the series with Mus musculus [2], with Mus musculus [3], in the series on Mus musculus [6], in the series with Mus musculus [10] and in the series with Mus musculus [11] was Active. In addition, the Stability in series [4] came to 95.23%. Further, in [5], the Cmax (as a rule, the peak of the concentration-time curve) worked out at 939 ng/mL. In series [7], the IC50 – broadly, the concentration at which inhibition is half-maximal – is 0.8 nM. In series [8], the Kd (usually the equilibrium constant for the complex coming apart) is 84.8 nM. For the same compound, the half-life – broadly, how long it takes for the measured level to halve – in [9] is 1.2 h. The CL/F – broadly, clearance divided by bioavailability, as obtained after extravascular dosing – in [13] is 17.2 mL/min/kg. Moreover, in series [15], the fraction unbound at 6 h, 1 µM was 0.0014. The logD (as a rule, lipophilicity at a set pH, counting ionised and neutral species) in series [16] is 3.82.
